The experiment concerns the target T1, matrix metalloproteinase-9 (MMP-9, gelatinase B) (Homo sapiens, UniProt P14780).
T1 construct: gene MMP9
The experiment in a line: fluorogenic DQ-gelatin degradation assay with active MMP-9; also gelatin zymography with compound in the incubation buffer. The format is biochemical.

What is called IC50 is the concentration needed to halve the response being measured.

T1 sequence (P14780 107-707): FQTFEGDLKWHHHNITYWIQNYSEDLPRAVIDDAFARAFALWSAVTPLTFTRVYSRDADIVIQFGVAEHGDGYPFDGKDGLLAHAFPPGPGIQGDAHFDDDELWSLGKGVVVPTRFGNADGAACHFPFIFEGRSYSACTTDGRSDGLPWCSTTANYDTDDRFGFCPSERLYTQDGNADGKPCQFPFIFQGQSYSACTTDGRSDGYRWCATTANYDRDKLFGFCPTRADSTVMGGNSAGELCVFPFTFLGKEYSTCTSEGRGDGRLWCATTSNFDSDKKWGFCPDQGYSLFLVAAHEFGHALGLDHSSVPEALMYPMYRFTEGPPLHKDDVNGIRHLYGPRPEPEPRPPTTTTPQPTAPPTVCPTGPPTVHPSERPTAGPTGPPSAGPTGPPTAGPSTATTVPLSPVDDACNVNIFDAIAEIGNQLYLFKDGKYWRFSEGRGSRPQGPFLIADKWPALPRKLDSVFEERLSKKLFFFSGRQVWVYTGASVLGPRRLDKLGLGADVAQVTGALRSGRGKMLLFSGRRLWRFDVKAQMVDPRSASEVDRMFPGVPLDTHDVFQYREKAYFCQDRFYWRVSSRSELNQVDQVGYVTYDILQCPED

Regarding `CN(C)c1ccc(O)c2c1C[C@H]1C[C@H]3[C@H](N(C)C)C(O)=C(C(N)=O)C(=O)[C@@]3(O)C(O)=C1C2=O` [minocycline], the IC50 amounted to 272 µM.

Source of the values: article PMC5378356, “Differential inhibition of activity, activation and gene expression of MMP-9 in THP-1 cells by azithromycin and minocycline versus bortezomib: A comparative study” (PLoS ONE, 2017).
